ChEMBL document CHEMBL1833843, “Diarylpropanes and an arylpropyl quinone from Combretum griffithii” (J Nat Prod, 2011)
Converted amounts (≈) assume the structure as drawn. The source made the active and inactive calls. The calls are words filed in the database; no cut-off is given here.

Columns and labels:
[1] = tested on: Mycobacterium tuberculosis; assay: Antimycobacterial activity against Mycobacterium tuberculosis H37Ra by microplate alamar blue assay; assay type: functional
[2] = tested on: Plasmodium falciparum; assay: Antimalarial activity against multidrug-resistant Plasmodium falciparum K1 assessed as [3H]-hypoxanthine uptake at 10 ug/mL after 24 hrs by scintillation counting; assay type: functional, organism-based
[3] = tested on: KB; assay: Cytotoxicity against human KB cells by sulforhodamine B assay; assay type: functional, cell-based
[4] = tested on: MCF7; assay: Cytotoxicity against human MCF7 cells by sulforhodamine B assay; assay type: functional, cell-based
[5] = tested on: NCI-H187; assay: Cytotoxicity against human NCI-H187 cells by sulforhodamine B assay; assay type: functional, cell-based
[6] = tested on: Plasmodium falciparum; assay: Antimalarial activity against multidrug-resistant Plasmodium falciparum K1 assessed as [3H]-hypoxanthine uptake after 24 hrs by scintillation counting

NNC(=O)c1ccncc1 [ISONIAZID]
MIC [1]: 0.23 µg/mL (≈ 1.68 µM)

COc1cc(O)c(O)cc1CCCc1ccc(OC)c(OC)c1
Activity [2]: inactive

COc1cc(CCCc2ccc(OC)c(O)c2OC)ccc1O [GRIFFITHANE B]
Activity [2]: inactive | IC50 [3]: 5.67 µg/mL (≈ 17.8 µM)

COc1cc(CCCc2cc(OC)c(O)cc2OC)ccc1O [GRIFFITHANE A]
Activity [2]: inactive | IC50 [3]: 2.13 µg/mL (≈ 6.69 µM)

COc1ccc(CCCc2ccc(O)c(OC)c2)c(O)c1
Activity [2]: inactive | IC50 [3]: 2.18 µg/mL (≈ 7.56 µM) | MIC [1]: 3.13 µg/mL (≈ 10.9 µM)

COC1=CC(=O)C(CCCc2ccc(O)c(OC)c2)=CC1=O [GRIFFITHANE D]
Activity [2]: inactive | IC50 [4]: 6.75 µg/mL (≈ 22.3 µM) | IC50 [3]: 1.42 µg/mL (≈ 4.7 µM) | IC50 [5]: 1.08 µg/mL (≈ 3.57 µM)

C[C@H]1[C@@H](O)O[C@@H]2O[C@@]3(C)CC[C@H]4[C@H](C)CC[C@@H]1[C@@]24OO3 [ARTENIMOL]
IC50 [6]: 0.001 µg/mL (≈ 0.00352 µM)
